Data from patent publication US8809324B2, “Substituted phenyl-oxathiazine derivatives, method for producing them, drugs containing said compounds and the use thereof” (Sanofi, priority 2011, dated 2014).

Target: human 11β-HSD1 microsome fraction (Homo sapiens, UniProt P28845)
Test: Enzymatic 11Beta-HSD1 test (SPA-based detection)
Type: biochemical
Settings: human 11β-HSD1 microsomes, [1,2-3H]-cortisone, NADPH, 37° C. 1 hour
Method: Enzymatic 11Beta-HSD1 Test:
To measure the activity of the compounds, an SPA-based detection method (Solly et al. 2005) was employed. First of all, 20 μl of the human 11β-HSD1 microsome fraction (0.2 μg of protein), prepared in 50 mM HEPES, 0.1% BSA (w/v), were applied to a plate with 384 wells. The test compounds (0.09 μl) were applied to the assay plate in 100% DMSO. The reaction was started by addition of 20 μl of [1,2-^3H]-cortisone (0.1 μCi/[…]) in assay buffer comprising 25 mM HEPES, 100 mM KCl, 5 mM NaCl, 2 mM MgCl2 and 0.25 mM NADPH. The plate was agitated at 37° C. for 1 hour. At the same time, a stop solution comprising 20 mg/ml SPA-PVT beads, 1.6 mg/ml monoclonal cortisol antibody and 0.01 mM SSR110887 (inhibitor from the Biovitrium patent) in 50 mM HEPES, 1 M NaCl and 1 M KCl was stirred at room temperature. To stop the reaction, 25 μl of the stop solution were added to each well. The plate was agitated gently at room temperature for 1 further hour and then centrifuged at 500 gav for 1 minute, in order that the SPA beads could settle out. The plate was then read in a Wallac-1450-Microbeta unit with a standard SPA program (counting time 1 min/well). The comparative compound was glycyrrhetinic acid.
Protein and radioactive substrate were dispensed with a Biomek FX unit (Beckman Coulter) for handling liquids. The test compounds were added with a Cybi-Well equipped with a 90 nl pin tool (CyBio).
Lit.: Solly S, Mundt S S, Zokian H J, Juy-Fang Ding G, Hermanowski-Vosatka A, Strulovici B and Zheng W. High-throughput screening of 11β-Hydroxysteroid dehydrogenase type 1 in scintillation proximity format. Assay Drug Dev Technol 2005; 3:377-384.

Chain of human 11β-HSD1 microsome fraction (P28845 whole entry): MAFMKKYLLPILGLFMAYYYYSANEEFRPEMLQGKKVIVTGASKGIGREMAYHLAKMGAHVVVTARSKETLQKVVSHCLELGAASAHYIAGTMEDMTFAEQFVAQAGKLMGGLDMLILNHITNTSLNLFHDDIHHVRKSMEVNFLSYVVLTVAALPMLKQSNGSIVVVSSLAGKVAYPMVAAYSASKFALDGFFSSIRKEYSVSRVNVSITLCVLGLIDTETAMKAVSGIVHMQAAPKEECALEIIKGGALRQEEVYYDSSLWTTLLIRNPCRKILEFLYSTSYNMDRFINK

IC50	SMILES
34 nM	CC1(C)OC(NC23CC4CC2CC(C(N)=O)(C4)C3)=NS(=O)(=O)[C@@H]1c1ccc(-c2ccccc2)cc1 (stereo partly drawn) [Example 4, 3a-((R)-5-Biphenyl-4-yl-6,6-dimethyl-4,4-dioxo-5,6-dihydro-4H-4lambda6-[1,4,3]oxathiazin-2-ylamino)hexahydro-2,5-methane-pentalene-2-carboxamide]
22 nM	CC1(C)OC(NC23CC4CC2CC(C(N)=O)(C4)C3)=NS(=O)(=O)[C@@H]1c1ccc(Br)cc1 (stereo partly drawn) [Example 3, 3a-[(R)-5-(4-Bromophenyl)-6,6-dimethyl-4,4-dioxo-5,6-dihydro-4H-4lambda6-[1,4,3]oxathiazin-2-ylamino]hexahydro-2,5-methanopentalene-2-carboxamide]
14 nM	CC1(C)OC(NC23CC4CC(CC2C4)C3)=NS(=O)(=O)[C@H]1c1ccc(-c2cccc(C(=O)O)c2)cc1 [Example 1, 4′-[(S)-2-(Hexahydro-2,5-methanopentalen-3a-ylamino)-6,6-dimethyl-4,4-dioxo-5,6-dihydro-4H-4lambda6-[1,4,3]oxathiazin-5-yl]-biphenyl-3-carboxylic acid]
24 nM	CC1(C)OC(NC23CC4CC(CC2C4)C3)=NS(=O)(=O)[C@H]1c1ccc(C2CCN(CCC(F)(F)F)CC2)cc1 [Example 2, ((S)-6,6-Dimethyl-4,4-dioxo-5-{4-[1-(3,3,3-trifluoropropyl)-piperidin-4-yl]phenyl}-5,6-dihydro-4H-4lambda6-[1,4,3]oxathiazin-2-yl)-(hexahydro-2,5-methanopentalen-3a-yl)amine]
